Experimental data as given in patent US12612375B2, “Antimicrobial and anticancer agents” (Persevere Therapeutics Inc., priority 2021, dated 2026).

Legend:
Escherichia coli = assay: Agar diffusion test Escherichia coli; format: cell-based; settings: for Inhibition Zone: Escherichia coli (ATCC 8739), gram-negative
Description: (§1) Different gram-negative and gram-positive bacteria are used for testing the compounds of the present disclosure: Staphylococcus aureus and Escherichia coli (ATCC-LGC Standards GmbH, Wesel, Germany); Enterococcus faecilis, Enterococcus faecilum, Staphylococcus aureus, Clostridium difficile, Acineobacter baumannii, Pseudomonas aeruginosa, Stenotrophomonas maltophilia, Citrobacter freundii, Escherichia coli, Klebsiella pneomoniae, Morganelle morganii, Bactroides fragilis, Helicobacter pylori (fresh clinical isolates). All isolates are cultured with Müller-Hinton-Agar excluding Bacteroides fragilis and Helcobacter pylori. Bacteroides fragilis is cultured with Müller-Hinton-Agar containing 5% Horseblood and 20 mg/l ß-NAD. Helicobacter pylori is cultured with Chocolat PolyViteX-Agar.
(§2) The antibacterial potential of compounds is examined by the Kirby-Bauer disc diffusion test using Müller-Hington agar. A 10 mm diameter disk soaked in 150 μl of distilled water containing 10 mg of the test substance was placed on Müller-Hington agar (bioMeieux, Geneve, Switzerland) holding a pre-lawn of the according test bacteria. The plates are incubated at 37° C. for 24 hours and the zone of inhibition is recorded. Culture media and sterilized distilled water were used as a control. N-acetylcysteine (NAC) is used as an anti-oxidant control.

[1] = Human fresh blood stability / half-life at 37° C. in vitro; format: in vitro ADME; settings: 2296 into 1-hydroxypropane-2-sulfonamide, human blood 37° C., 256 μM, Time 48 h
[2] = as above; format: in vitro ADME; settings: for human blood stability profile compared to 2250: K2-EDTA human blood; for half-life compared to the half-life of taurolidine / half-life at 256 μM: human; for half-life at 256 μM: blood
Procedure: The half-life of each of compounds 2289, 2293, and 2296 in human fresh blood was measured at 37° C. in vitro. For 2289 and 2293 into 2250, K2-EDTA human blood was spiked with 2289 or 2293 at 256 μM; 2250 at 26 μM and 2244 at 26 μM (n=1). The pool remained at 37° C. for 20-25 min and then an aliquot was centrifuged (2500 g for at least 5 minutes at 4° C.). After centrifugation the human plasma was collected and immediately frozen at −80° C. This aliquot corresponded to the T0. The remaining pool was aliquoted and kept at 37° C. An aliquot was collected, centrifuged (2500 g for at least 5 minutes at 4° C.) and the recovered plasma was frozen at −80° C. after at least 0.25, 0.5, 1, 6, 8, 24 and 48 hours. Stability was determined by measuring the 2289 and 2293 peak area at each time point compared to T0. For 2296 into its metabolite 1-hydoxypropane-2-sulfonamide, K2-EDTA human blood was spiked with 2296 at 256 μM and 1-hydroxypropane-2-sulfonamide at 26 μM (n=1). The pool remained at 37° C. for 20-25 min and then an aliquot was centrifuged (2500 g for at least 5 minutes at 4° C.). After centrifugation the human plasma was collected and immediately frozen at −80° C. This aliquot corresponded to the TO. The remaining pool was aliquoted and kept at 37° C. An aliquot was collected, centrifuged (2500 g for at least 5 minutes at 4° C.) and the recovered plasma frozen at −80° C. after at least 0.5, 1, 3, 6, 8 and 24 hours/ Stability was determined by measuring 2296 peak area at each time point compared to T0.

[3] = tested on: Staphylococcus aureus (MRSA); assay: Agar diffusion test Staphylococcus aureus (MRSA); format: cell-based; settings: for Inhibition Zone: Staphylococcus aureus (MRSA Nr. 2065), gram-positive
Description: as §1, §2

Solubility in water = format: physicochemical; settings: at room temperature
Procedure: Re-crystallization with, e.g., • Ethanol • Ethyl acetate • Ethyl acetate/light petroleum Physical Properties • Melting range: 79-83° C. • Solubility in water: about 1.5% at room temperature • Melting range: 52-53° C. • Solubility in water: <1.5% at room temperature • Melting range: 74-75° C. • Solubility in water: min. 1% at room temperature

[4] = tested on: Staphylococcus aureus (ATCC 6538); assay: Agar diffusion test Staphylococcus aureus (ATCC 6538); format: cell-based; settings: gram-positive
Description: as §1, §2

tumor stem cells = assay: Killing tumor stem cells in tissue culture in vitro; format: cell-based
Procedure: In some embodiments, the taurolidine, taurultam, or a mixture thereof is administered in a tumor stem cell killing composition at a concentration of about 0.01 to about 500 μg/ml. In some embodiments, the taurolidine, taurultam, or a mixture thereof is administered in a tumor stem cell killing composition at a concentration of about 0.1 to about 100 μg/ml. In some embodiments, the taurolidine, taurultam, or a mixture thereof is administered in a tumor stem cell killing effective composition at a concentration of about 10 to about 50 μg/ml. Taurolidine is effective at killing tumor stem cells in tissue culture in vitro at 0.01 μg/ml.

[5] = previously reported; cited from earlier work
Enterococcus faecium = assay: Agar diffusion test Enterococcus faecium; format: cell-based; settings: 10 mm disk with 10 mg test substance, 37° C., 24 hours
Description: as §1, §2

[6] = tested on: MDA MB 468, HT29, MCC 14.2, Panc TuI; assay: MTT assay for cell viability, all tested cancer cell lines (Example 2); format: cell-based, human; settings: FIG. 2
Procedure: (§3) Cells are seeded individually to obtain a sub confluent monolayer in a 96 well plate format and are incubated for 24 hours prior treatment. To examine a dose response regarding the antineoplastic activity cells are incubated with increasing concentrations (100, 200, 500, 1000, 1500, 2000 μmol/l) of all different Oxathiazinane derivatives and ddH2O as control for 24 and 48 hours. After the exposition time 10 μl MTT (3-(4,5-Dimethylthiazol-2-yl)-2,5-diphenyltetrazoliumbromid) reagent (5 mg/ml) is added and incubated for 2 hours before violet Formazan crystals are dissolved in 100 μl DMSO (Dimethylsulfoxide). Viability of the cells can be analyzed by using a microplate absorbance reader by measuring the OD560 (ASYS, UVM340, Anthos Mikrosystheme GmbH, Germany). The assay is performed using 8 replicates in three independent experiments with consecutive passages.
(§4) Anti-neoplastic activity of compounds 2289, 2293, and 2296 was determined according to the MTT assay and BrdU assay described above.

MDA MB 468 cells = assay: Cell migration assay (scratch of confluent monolayer); format: cell-based, human; settings: 2 to 5 days, compared to untreated control, semi-quantified (FIG. 1)
Procedure: Cells are plated into the 60-mm dishes to create a confluent monolayer and are incubated for 24 hours allowing cells to adhere and spread. The required number of cells for a confluent monolayer depends on the particular cell type. After creating a scratch of the cell monolayer, the gaparea is examined by phase-contrast-microscopy. Images are captured at the beginning and at regular intervals during cell migration (48, 72, and 120 hours (5 d)) closing the scratch, to semi-quantify the migration rate of the cells.
Cell migration assay: cell migration of compounds 2289, 2244, 2287, 2255, 2256 compared to non-treated control (NK) and positive control (compound 2250). Comparative compounds 2244, 2287, 2255, 2256 have the following structures:
Using cell migration assays, the migration rate of different cancer cell entities under treatment with 2289, negative control and positive control (2250) was semi-quantified.

[7] = tested on: all tested cancer cell lines (MDA MB 468 highest, MCC 14.2 lowest response); assay: BrdU assay for cell proliferation, all tested cancer cell lines (Example 2); format: cell-based, human; settings: FIG. 3
Procedure: Cells are seeded individually to obtain a sub confluent monolayer in a 96 well plate format and are incubated for 24 hours prior to treatment. To examine the dose response regarding their anti-proliferative activity, cells are incubated with increasing concentrations (100, 200, 500, 1000, 1500 and 2000 μmol/l) of all different Oxathiazinane derivates and ddH2O as control for 6 h prior BrdU proliferation assay (5-bromo-2-deoxyuridine)-ELISA (Roche Applied Science, Mannheim, Germany) according to the manufacturer's instructions. […] The amount of synthesized DNA is detected using a microplate absorbance reader measuring at 370 nm with a reference wavelength of 492 nm (ASYS, UVM340, Anthos Mikrosysteme GmbH, Krefeld, Germany). BrdU assays are performed with 8 replicates of three independent experiments with consecutive passages.
as §4

AsPc1 cells = assay: MTT cytotoxicity assay AsPc1; format: cell-based; settings: AsPc1, after 24 h, compared to untreated control (NC), t-test
Procedure: as §3
A MTT Cytotoxicity assay of the cell line AsPc1 with different oxathiazine derivatives was performed.

Enterococcus faecalis = assay: Agar diffusion test Enterococcus faecalis; format: cell-based; settings: 10 mm disk with 10 mg test substance, 37° C., 24 hours
Description: as §1, §2

[8] = Escherichia coli, 10 mm disk with 10 mg test substance, 37° C., 24 hours
[9] = Staphylococcus aureus (MRSA), 10 mm disk with 10 mg test substance, 37° C., 24 hours
[10] = 2289 or 2293 spiked at 256 μM into K2-EDTA human blood, 37° C., Time 0 h (T0, after 20-25 min at 37° C.)

Structure (SMILES) | Inhibition Zone (Escherichia coli) | human blood stability profile compared to 2250 ([2]; 37° C.) | half-life compared to the half-life of taurolidine [2] | half-life at 256 μM [2] | Solubility in water (Solubility in water) | Inhibition Zone [4] | zone of inhibition at 10000 µg/disc (Escherichia coli; [8]) | zone of inhibition at 10000 µg/disc [3, 9] | further results
CC1COCNS1(=O)=O (centres unmarked) [Compound 2296] | 23.0 mm | very similar profile | significantly higher | 5 to 6 h | ≥ 1% | 38.0 mm | – | – | % Stability [1]: 1%; % Stability ([2]; 2296 into 1-hydroxypropane-2-sulfonamide, human blood 37° C., 256 μM, Time 0 h): 100%; % Stability ([2]; 2296 into 1-hydroxypropane-2-sulfonamide, human blood 37° C., 256 μM, Time 0.5 h): 97%; % Stability ([2]; 2296 into 1-hydroxypropane-2-sulfonamide, human blood 37° C., 256 μM, Time 1 h): 92%; % Stability ([2]; 2296 into 1-hydroxypropane-2-sulfonamide, human blood 37° C., 256 μM, Time 3 h): 71%; % Stability ([2]; 2296 into 1-hydroxypropane-2-sulfonamide, human blood 37° C., 256 μM, Time 6 h): 52%; % Stability ([2]; 2296 into 1-hydroxypropane-2-sulfonamide, human blood 37° C., 256 μM, Time 8 h): 42%; % Stability ([2]; 2296 into 1-hydroxypropane-2-sulfonamide, human blood 37° C., 256 μM, Time 24 h): 7%; Inhibition Zone [3]: 43.0 mm
O=S1(=O)CCN(CN2CCS(=O)(=O)NC2)CN1 [taurolidine] | – | – | – | – | – | – | – | – | concentration effective at killing tumor stem cells (tumor stem cells): 0.01 µg/mL; half-life [5]: about 30 minutes
CC1OCCS(=O)(=O)N1C (centres unmarked) [Compound 2287] | – | – | – | – | – | – | < 10 mm | < 10 mm | –
NS(=O)(=O)CCO [Compound 2244] | – | – | – | – | – | – | < 10 mm | – | zone of inhibition at 10000 µg/disc (Enterococcus faecium): < 10 mm
CC(=O)N1COCCS1(=O)=O [Compound 2289] | 18.5 mm | very similar profile | significantly higher | 5 to 6 h | about 1.5% | 27.5 mm | 18.5 mm | 27.5 mm | % Stability [2, 10]: Not stable-; reduction of living cells (cell viability, MTT) [6]: significant reduction of living cells; migration rate (MDA MB 468 cells): lower migration rate; reduction of proliferating cells (BrdU) [7]: significant reduction of proliferating cells
CCC(=O)N1COCCS1(=O)=O [Compound 2293] | 19.5 mm | very similar profile | significantly higher | 5 to 6 h | < 1.5% | 31.5 mm | – | – | % Stability [2, 10]: Not stable-; Inhibition Zone [3]: 32.5 mm; concentration from which a significant impact on cell viability is shown (AsPc1 cells): ≥ 500 µM
CN1COCCS1(=O)=O [Compound 2255] | – | – | – | – | – | – | < 10 mm | < 10 mm | –
CC1NS(=O)(=O)CCO1 (centres unmarked) [Compound 2256] | – | – | – | – | – | – | < 10 mm | < 10 mm | –
O=S1(=O)CCOCN1 [Compound 2250] | – | – | – | – | – | – | – | – | Zone of inhibition (Escherichia coli; [8]): 24.5 mm; Zone of inhibition [3, 9]: 49.5 mm; half-life compared to taurolidine [5]: significantly longer half-life; reduction of living cells (cell viability, MTT) [6]: significant reduction of living cells; migration rate (MDA MB 468 cells): clearly inhibited; reduction of proliferating cells (BrdU) [7]: significant reduction of proliferating cells; Zone of inhibition (Enterococcus faecalis): 42.5 mm)
